Data set [1] can be described thus: Carotenoid content of Lycopene Suspension-supplemented diets after 7 months storage. The format is physicochemical. The settings on record: for Carotenoid content of diet: stored at −20 °C for 7 months. As to the method: When the Lycopene Suspension (Henkel Corporation, La Grange, Ill.) was extracted by organic extraction methods, the major carotenoid was lycopene, but a number of other carotenoids were known to be present in tomatoes, α- and β-Carotene, phytofluene and phytoene were also present (FIGS. 6 & 7). The quantitative profile of carotenoids in the Lycopene Suspension was carried out using an HPLC system as described above, equipped with a photodiode array detector. The six major components can be seen in Table 7.
(Table 10). Note that all the major carotenoids plus the lycopene metabolite present in the Lycopene Suspension are present in the diets in the same relative proportions. However, the net loss of lycopene over 7 months was 66%, 38%, 40%, 44% and 60%, in treatment groups 1-5, respectively; in contrast, β-carotene concentrations declined by only 10% of original values over the same time period.

Data set [2] can be described thus: Carotenoid content of livers of rats fed supplemented diets.
Procedure: Breast, liver and prostate tissue contain lipids which interfere with the assay. Consequently, a saponification step was required prior to organic extraction. Tissue was homogenized in 20 ml methanol to which echinenone was added as internal standard. For breast tissue, which comprise of 85% adipocytes, 8.0 ml 50% NaOH and 4.0 ml 25% sodium ascorbate was added and the mixture was homogenized. For prostate and liver tissue, which contain less lipid, 4.0 ml and 50% NaOH. and 2.0 ml sodium ascorbate were added and the mixture was
homogenized. Saponification was carried out in 50 ml tubes saturated with N2 gas overnight in a temperature controlled shaker bath at 30° C. Following saponification, 10 ml hexane was add d to each tube and vortexed for 1 minute. The mixture was then centrifuged at 2000 rpm for 10 min at 4° C. and the hexane layer was decanted and saved. This hexane extraction procedure was repeated 5-7 times. The pooled hexane extract was then dried under N2 gas at 60° C., dissolved in injection solvent and analyzed by HPLC. Lung and colon tissue were processed in an identical manner with the exception that the saponification step was omitted.
The mark [3] stands for this setting: female rats, Diet 1, 2.5 mM/kg diet.
Where [4] appears, read: female rats, Diet 2, 1.0 mM/kg diet.
[5] abbreviates: female rats, Diet 3, 0.5 mM/kg diet.
[6] abbreviates: female rats, Diet 4, 0.25 mM/kg diet.
The mark [7] stands for this setting: female rats, Diet 5, 0.10 mM/kg diet.
[8] abbreviates: male rats, Diet 1, 2.5 mM/kg diet.
The mark [9] stands for this setting: male rats, Diet 2, 1.0 mM/kg diet.
Setting [10] is: male rats, Diet 3, 0.5 mM/kg diet.
Setting [11] is: male rats, Diet 5, 0.10 mM/kg diet.

The structures appear in SMILES notation.

Consider `CC(C)=CCC/C(C)=C/C=C/C(C)=C/C=C/C(C)=C/C=C/C=C(C)/C=C/C=C(C)/C=C/C1C(C(C)(C)O)CCC1(C)O` (stereo not drawn) [2,6 cyclolycopene-1,5-diol], for which the “Carotenoid content of diet” value in data set [1] (Diet 1, 2.5 mM/kg diet) is given as 2 μg/gm (ppm); in data set [1] (Diet 2, 1.0 mM/kg diet) it was 1.4 μg/gm (ppm); in data set [1] (Diet 3, 0.5 mM/kg diet), 0.76 μg/gm (ppm); in data set [1] (Diet 4, 0.25 mM/kg diet) it was 0.46 μg/gm (ppm); in data set [1] (Diet 5, 0.10 mM/kg diet), 0.14 μg/gm (ppm). Besides, the “Carotenoid content of liver” value is reported as 9 μg/gm (ppm) in data set [2] (setting [3]); 5 μg/gm (ppm) in data set [2] (setting [4]); 7 μg/gm (ppm) in data set [2] (setting [5]); 4 μg/gm (ppm) in data set [2] (setting [6]); 6 μg/gm (ppm) in data set [2] (setting [7]); 4 μg/gm (ppm) in data set [2] (setting [8]). Besides, the “Carotenoid content of liver” value in data set [2] (setting [9]) is “.39 μg/gm (ppm)”; in data set [2] (setting [10]), 4 μg/gm (ppm); in data set [2] (male rats, Diet 4, 0.25 mM/kg diet) it was “.28 μg/gm (ppm)”; in data set [2] (setting [11]) it was “.34 μg/gm (ppm)”.
With `CC(C)=CCC/C(C)=C/CC/C(C)=C/CC/C(C)=C/C=C/C=C(\C)CC/C=C(\C)CC/C=C(\C)CCC=C(C)C` [Phytoene], the “Carotenoid content of diet” value was 70 μg/gm (ppm) in data set [1] (Diet 1, 2.5 mM/kg diet); 23 μg/gm (ppm) in data set [1] (Diet 2, 1.0 mM/kg diet); 0.32 μg/gm (ppm) in data set [1] (Diet 3, 0.5 mM/kg diet); 5 μg/gm (ppm) in data set [1] (Diet 4, 0.25 mM/kg diet); 1 μg/gm (ppm) in data set [1] (Diet 5, 0.10 mM/kg diet). In addition, the “Carotenoid content of liver” value is on record as 66 μg/gm (ppm) in data set [2] (setting [3]); 35 μg/gm (ppm) in data set [2] (setting [4]); 40 μg/gm (ppm) in data set [2] (setting [5]); 46 μg/gm (ppm) in data set [2] (setting [6]); 38 μg/gm (ppm) in data set [2] (setting [7]); 23 μg/gm (ppm) in data set [2] (setting [8]). Also, the results for the “Carotenoid content of liver” value in data set [2] (setting [9]), in data set [2] (setting [10]) and in data set [2] (setting [11]) were 4 μg/gm (ppm), 21 μg/gm (ppm) and 10 μg/gm (ppm), respectively.
Take `CC1=C(/C=C/C(C)=C/C=C/C(C)=C/C=C/C=C(C)/C=C/C=C(C)/C=C/C2=C(C)CCCC2(C)C)C(C)(C)CCC1` [β-carotene]: the “Carotenoid content of diet” value in data set [1] (Diet 1, 2.5 mM/kg diet) is on record as 284 μg/gm (ppm); in data set [1] (Diet 2, 1.0 mM/kg diet), 138 μg/gm (ppm); in data set [1] (Diet 3, 0.5 mM/kg diet), 69 μg/gm (ppm); in data set [1] (Diet 4, 0.25 mM/kg diet), 37 μg/gm (ppm); in data set [1] (Diet 5, 0.10 mM/kg diet), 8 μg/gm (ppm). Also, the “decline of concentration from original values” in data set [1] (diets, 7 months storage) was 10%.
`CC(C)=CCC/C(C)=C/CC/C(C)=C/C=C/C(C)=C/C=C/C=C(\C)CC/C=C(\C)CC/C=C(\C)CCC=C(C)C` [Phytofluene]: the “Carotenoid content of diet” value in data set [1] (Diet 1, 2.5 mM/kg diet) is on record as 58 μg/gm (ppm); in data set [1] (Diet 2, 1.0 mM/kg diet), 28 μg/gm (ppm); in data set [1] (Diet 3, 0.5 mM/kg diet), 14 μg/gm (ppm); in data set [1] (Diet 4, 0.25 mM/kg diet) it was 8 μg/gm (ppm); in data set [1] (Diet 5, 0.10 mM/kg diet) it was 2 μg/gm (ppm). The “Carotenoid content of liver” value in data set [2] (setting [3]) is 106 μg/gm (ppm); in data set [2] (setting [4]), 48 μg/gm (ppm); in data set [2] (setting [5]), 50 μg/gm (ppm); in data set [2] (setting [6]) it was 46 μg/gm (ppm); in data set [2] (setting [7]), 33 μg/gm (ppm); in data set [2] (setting [8]), 30 μg/gm (ppm). Also, the “Carotenoid content of liver” value was 5 μg/gm (ppm) in data set [2] (setting [9]), 34 μg/gm (ppm) in data set [2] (setting [10]) and 10 μg/gm (ppm) in data set [2] (setting [11]).
As for `CC(C)=CCC/C(C)=C/CC/C(C)=C/C=C/C(C)=C/C=C/C=C(C)/C=C/C=C(\C)CC/C=C(\C)CCC=C(C)C` [zeta-carotene], the “Carotenoid content of diet” value in data set [1] (Diet 1, 2.5 mM/kg diet) was 1 μg/gm (ppm); in data set [1] (Diet 2, 1.0 mM/kg diet) it was 9 μg/gm (ppm); in data set [1] (Diet 3, 0.5 mM/kg diet), 4 μg/gm (ppm); in data set [1] (Diet 4, 0.25 mM/kg diet) it was 2 μg/gm (ppm); in data set [1] (Diet 5, 0.10 mM/kg diet), 0 μg/gm (ppm).

The values are drawn from patent publication US20040191297A1, “Carotenoid formulation” (priority 1997, published 2004).
